Assay results taken from publication PMC8554203, “Inhibition of Bromodomain and Extra Terminal (BET) Domain Activity Modulates the IL-23R/IL-17 Axis and Suppresses Acute Graft-Versus-Host Disease” (Frontiers in Oncology, 2021).
Read-outs that look alike come from different tables or passages of the source.

Columns and labels:
BRD2 = molecular target: T1, BRD2 (Homo sapiens, UniProt P25440); experiment: substrate binding (displacement) assay with engineered tandem bromodomain protein
T1 construct: BRD2-BD12 (engineered protein containing both bromodomains)

BRD4 = molecular target: T2, BRD4 (Homo sapiens, UniProt O60885); experiment: as above; conditions: read-out: PLX2853 / IC50 (μM) ^a
T2 construct: BRD4-BD12 (engineered protein containing both bromodomains)

T1 sequence (P25440 74-453 limits assumed): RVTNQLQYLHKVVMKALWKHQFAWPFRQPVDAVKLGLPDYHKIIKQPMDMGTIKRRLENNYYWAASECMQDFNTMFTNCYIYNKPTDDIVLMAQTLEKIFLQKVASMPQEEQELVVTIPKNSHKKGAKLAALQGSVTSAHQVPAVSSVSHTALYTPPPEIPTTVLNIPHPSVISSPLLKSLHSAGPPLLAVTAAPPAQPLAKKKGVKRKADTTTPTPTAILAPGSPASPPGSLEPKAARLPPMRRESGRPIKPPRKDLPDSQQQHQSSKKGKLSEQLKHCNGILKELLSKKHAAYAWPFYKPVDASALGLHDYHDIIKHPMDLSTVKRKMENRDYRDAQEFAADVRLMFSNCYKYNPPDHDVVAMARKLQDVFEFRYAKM

| IC50 (BRD2) [µM] | IC50 (BRD2; read-out: PLX2853 / IC50 (μM) ^a) [µM] | IC50 (BRD4) [µM] | SMILES |
| --- | --- | --- | --- |
| 0.052 |  |  | Cc1noc(C)c1-c1cnc2c(-c3ccc(C(=O)O)cc3)cn([C@@H](C)c3ccccn3)c2c1 [PLX51107] |
|  | 0.0073 | 0.0043 | Cc1noc(C)c1-c1cnc2c(-c3ccc(C(=O)O)cc3)cn(C(C)(c3ccccn3)c3ccccn3)c2c1 [PLX2853] |
